Laboratory results from the supplement of paper PMC10307832.

Tests used:
Test in all cases: relative viability (nuclei count vs DMSO), 5 days (fraction); higher = more cells survive
A-427 = system: A-427
Outline: (§1)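 Relative viability was taken as the ratio of nuclei in treated wells to nuclei in vehicle wells. Lung cancer cell lines in 1536-well plates received compounds by pin tool one day after seeding, either one drug alone or a fixed anchor-drug dose plus five library-drug doses (not always all listed) in √10 steps. Nuclei were counted on 4× images after 5 days of treatment, and values are medians of duplicate plates.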

COR-L 105 = system: COR-L 105
Outline: as §1

ChaGo-K-1 = system: ChaGo-K-1
Outline: as §1

EKVX = system: EKVX
Outline: as §1

EMC-BAC-2 = system: EMC-BAC-2
Outline: as §1

H3255 = system: H3255
Outline: as §1

HCC-366 = system: HCC-366
Outline: as §1

LK-2 = system: LK-2
Outline: as §1

LOU-NH91 = system: LOU-NH91
Outline: as §1

NCI-H1563 = system: NCI-H1563
Outline: as §1

NCI-H1666 = system: NCI-H1666
Outline: as §1

NCI-H1734 = system: NCI-H1734
Outline: as §1

NCI-H1755 = system: NCI-H1755
Outline: as §1

NCI-H1975 = system: NCI-H1975
Outline: as §1

NCI-H2170 = system: NCI-H2170
Outline: as §1

NCI-H23 = system: NCI-H23
Outline: as §1

NCI-H441 = system: NCI-H441
Outline: as §1

NCI-H520 = system: NCI-H520
Outline: as §1

NCI-H596 = system: NCI-H596
Outline: as §1

PC-3 [JPC-3] = system: PC-3 [JPC-3]
Outline: as §1

SK-MES-1 = system: SK-MES-1
Outline: as §1

COc1cc2nccc(Oc3ccc(NC(=O)Nc4cc(C)on4)c(Cl)c3)c2cc1OC [Tivozanib] + C[C@@H](Oc1cc(-c2cnn(C3CCNCC3)c2)cnc1N)c1c(Cl)ccc(F)c1Cl [Crizotinib] (partner 1 µM)
relative viability (A-427; first compound 0.005 µM): 0.82 | relative viability (A-427; first compound 0.01581 µM): 0.84 | relative viability (A-427; first compound 0.05 µM): 0.986 | relative viability (A-427; first compound 0.1581 µM): 0.818 | relative viability (A-427; first compound 0.5 µM): 0.827 | relative viability (COR-L 105; first compound 0.01581 µM): 0.794 | relative viability (COR-L 105; first compound 0.05 µM): 0.797 | relative viability (COR-L 105; first compound 0.1581 µM): 0.775 | relative viability (COR-L 105; first compound 0.5 µM): 0.701 | relative viability (ChaGo-K-1; first compound 0.005 µM): 1.05 | relative viability (ChaGo-K-1; first compound 0.01581 µM): 1.17 | relative viability (ChaGo-K-1; first compound 0.05 µM): 1.19 | relative viability (ChaGo-K-1; first compound 0.1581 µM): 1.17 | relative viability (ChaGo-K-1; first compound 0.5 µM): 0.849 | relative viability (EKVX; first compound 0.005 µM): 0.995 | relative viability (EKVX; first compound 0.01581 µM): 1.02 | relative viability (EKVX; first compound 0.05 µM): 0.819 | relative viability (EKVX; first compound 0.1581 µM): 1.06 | relative viability (EKVX; first compound 0.5 µM): 1.22 | relative viability (EMC-BAC-2; first compound 0.005 µM): 0.769 | relative viability (EMC-BAC-2; first compound 0.01581 µM): 0.807 | relative viability (EMC-BAC-2; first compound 0.05 µM): 0.74 | relative viability (EMC-BAC-2; first compound 0.1581 µM): 0.754 | relative viability (EMC-BAC-2; first compound 0.5 µM): 0.791 | relative viability (H3255; first compound 0.005 µM): 0.799 | relative viability (H3255; first compound 0.01581 µM): 0.906 | relative viability (H3255; first compound 0.05 µM): 0.911 | relative viability (H3255; first compound 0.1581 µM): 0.777 | relative viability (H3255; first compound 0.5 µM): 0.8 | relative viability (HCC-366; first compound 0.005 µM): 0.515 | relative viability (HCC-366; first compound 0.01581 µM): 0.59 | relative viability (HCC-366; first compound 0.05 µM): 0.502 | relative viability (HCC-366; first compound 0.1581 µM): 0.487 | relative viability (HCC-366; first compound 0.5 µM): 0.372 | relative viability (LK-2; first compound 0.005 µM): 0.253 | relative viability (LK-2; first compound 0.01581 µM): 0.264 | relative viability (LK-2; first compound 0.05 µM): 0.221 | relative viability (LK-2; first compound 0.1581 µM): 0.198 | relative viability (LK-2; first compound 0.5 µM): 0.22 | relative viability (LOU-NH91; first compound 0.005 µM): 0.723 | relative viability (LOU-NH91; first compound 0.01581 µM): 0.737 | relative viability (LOU-NH91; first compound 0.05 µM): 0.77 | relative viability (LOU-NH91; first compound 0.1581 µM): 0.774 | relative viability (LOU-NH91; first compound 0.5 µM): 0.708 | relative viability (NCI-H1563; first compound 0.005 µM): 0.811 | relative viability (NCI-H1563; first compound 0.01581 µM): 0.857 | relative viability (NCI-H1563; first compound 0.05 µM): 0.81 | relative viability (NCI-H1563; first compound 0.1581 µM): 0.858 | relative viability (NCI-H1563; first compound 0.5 µM): 0.919 | relative viability (NCI-H1666; first compound 0.005 µM): 0.963 | relative viability (NCI-H1666; first compound 0.01581 µM): 0.905 | relative viability (NCI-H1666; first compound 0.05 µM): 0.901 | relative viability (NCI-H1666; first compound 0.1581 µM): 1.21 | relative viability (NCI-H1666; first compound 0.5 µM): 0.853 | relative viability (NCI-H1734; first compound 0.005 µM): 0.616 | relative viability (NCI-H1734; first compound 0.01581 µM): 0.63 | relative viability (NCI-H1734; first compound 0.05 µM): 0.682 | relative viability (NCI-H1734; first compound 0.1581 µM): 0.574 | relative viability (NCI-H1734; first compound 0.5 µM): 0.565 | relative viability (NCI-H1755; first compound 0.005 µM): 0.832 | relative viability (NCI-H1755; first compound 0.01581 µM): 0.845 | relative viability (NCI-H1755; first compound 0.05 µM): 0.937 | relative viability (NCI-H1755; first compound 0.1581 µM): 0.872 | relative viability (NCI-H1755; first compound 0.5 µM): 0.775 | relative viability (NCI-H1975; first compound 0.005 µM): 1.03 | relative viability (NCI-H1975; first compound 0.01581 µM): 0.856 | relative viability (NCI-H1975; first compound 0.05 µM): 0.944 | relative viability (NCI-H1975; first compound 0.1581 µM): 0.833 | relative viability (NCI-H1975; first compound 0.5 µM): 0.826 | relative viability (NCI-H2170; first compound 0.005 µM): 1.11 | relative viability (NCI-H2170; first compound 0.01581 µM): 1.21 | relative viability (NCI-H2170; first compound 0.05 µM): 1.24 | relative viability (NCI-H2170; first compound 0.5 µM): 1.17 | relative viability (NCI-H23; first compound 0.005 µM): 0.544 | relative viability (NCI-H23; first compound 0.01581 µM): 0.541 | relative viability (NCI-H23; first compound 0.05 µM): 0.474 | relative viability (NCI-H23; first compound 0.1581 µM): 0.461 | relative viability (NCI-H23; first compound 0.5 µM): 0.459 | relative viability (NCI-H441; first compound 0.005 µM): 0.688 | relative viability (NCI-H441; first compound 0.01581 µM): 0.676 | relative viability (NCI-H441; first compound 0.05 µM): 0.607 | relative viability (NCI-H441; first compound 0.1581 µM): 0.72 | relative viability (NCI-H441; first compound 0.5 µM): 0.666 | relative viability (NCI-H520; first compound 0.005 µM): 0.822 | relative viability (NCI-H520; first compound 0.01581 µM): 0.827 | relative viability (NCI-H520; first compound 0.05 µM): 0.895 | relative viability (NCI-H520; first compound 0.1581 µM): 0.713 | relative viability (NCI-H520; first compound 0.5 µM): 0.603 | relative viability (NCI-H596; first compound 0.005 µM): 0.947 | relative viability (NCI-H596; first compound 0.01581 µM): 0.903 | relative viability (NCI-H596; first compound 0.05 µM): 0.961 | relative viability (NCI-H596; first compound 0.1581 µM): 0.861 | relative viability (NCI-H596; first compound 0.5 µM): 0.966 | relative viability (PC-3 [JPC-3]; first compound 0.005 µM): 0.912 | relative viability (PC-3 [JPC-3]; first compound 0.01581 µM): 0.997 | relative viability (PC-3 [JPC-3]; first compound 0.05 µM): 0.991 | relative viability (PC-3 [JPC-3]; first compound 0.1581 µM): 1.02 | relative viability (PC-3 [JPC-3]; first compound 0.5 µM): 1.02 | relative viability (SK-MES-1; first compound 0.005 µM): 1.02 | relative viability (SK-MES-1; first compound 0.01581 µM): 1.03 | relative viability (SK-MES-1; first compound 0.05 µM): 1 | relative viability (SK-MES-1; first compound 0.1581 µM): 0.995 | relative viability (SK-MES-1; first compound 0.5 µM): 0.87
